Experiments:
Type in all cases: cell-based
[1] = test system: primary umbilical cord-derived mesenchymal stem cells; experiment: Stem cell proliferation (CCK, absorbance 450 nm) after pretreatment; settings: 10 ng/mL interferon-γ pretreatment one week; 24 h culture, CCK 4 h
Method: (§1) In a culture medium [high glucose DMEM (Gibco, Cat no. 11995-065); 10% fetal bovine serum (HyClone), 1% MEM non-essential amino acids solution (100×) (Gibco, Cat no. 11140-050)] containing 20 nM of exendin-4, primary umbilical cord-derived mesenchymal stem cells (ATCC No. PCS-500-010; Lot No. 63822428) were cultured for one week.
as §1, with “10” for “20”, “PMA,” for “exendin-4,”
as §1, with “10 ng/mL interferon-γ,” for “20 nM of exendin-4,”
as §1, with “10 μM” for “20 nM”, “tetrandrine,” for “exendin-4,”
as §1, with “10 μg/mL hyaluronic acid,” for “20 nM of exendin-4,”
as §1, with “30” for “20”, “substance P,” for “exendin-4,”
as §1, with “10” for “20”, “resveratrol,” for “exendin-4,”
as §1, with “10 μM” for “20 nM”, “lanifibranor,” for “exendin-4,”
(§2) Mesenchymal stem cells and the exendin-4-pretreated mesenchymal stem cells of the Example were each seeded at a density of 3,000 cells/well into 96-well plates containing 100 μL of a culture medium [high glucose DMEM (Gibco, Cat no. 11995-065), 10% fetal bovine serum (HyClone), 1% MEM non-essential amino acids solution (100×) (Gibco, Cat no. 11140-050)] per well and cultured for 24 hours in a CO2 incubator. Then, CCK solution (10 μL/well) was added, and incubation was continued for 4 hours in the CO2 incubator, followed by reading absorbance at a wavelength of 450 nm (420-480 nm) to determine proliferation.
as §2, with “PMA-pretreated” for “exendin-4-pretreated”, “proliferation. […]” for “proliferation.”

[2] = test system: primary umbilical cord-derived mesenchymal stem cells; experiment: Content of exosomal RNA (NanoDrop); settings: 10 ng/mL interferon-γ pretreatment one week
Method: as §1
(§3) After completion of culturing, the mesenchymal stem cells pretreated with exendin-4 were washed and additionally cultured for 72 hours in a culture medium supplemented with 10% fetal bovine serum (FBS) free of exosomes. The reason of employing exosome-free FBS was to prevent FBS-derived exosomes other than those secreted from the cells from being incorporated because generally used FBS contained a large amount of exosomes derived from bovine serum.
(§4) After 72 hours of culturing, the culture medium in which the pretreated mesenchymal stem cells were cultured was taken and centrifuged at 300×g for 10 min to remove residual cells and cell debris. The supernatant was filtered through a 0.22 μm filter, followed by centrifugation at 10,000×g and 4° C. for 70 min in a high-speed centrifuge. The supernatant thus obtained was subjected again to ultracentrifugation at 100,000×g and 4° C. for 90 min. The exosomes obtained as a pellet were diluted in PBS (phosphate buffered saline) before use in the following experiments.
as §1, with “10” for “20”, “PMA,” for “exendin-4,”
as §3, with “PMA” for “exendin-4”
as §1, with “10 ng/mL interferon-γ,” for “20 nM of exendin-4,”
as §3, with “interferon-γ” for “exendin-4”
as §1, with “10 μM” for “20 nM”, “tetrandrine,” for “exendin-4,”
as §3, with “tetrandrine” for “exendin-4”, “serum. […]” for “serum.”

[3] = test system: primary umbilical cord-derived mesenchymal stem cells; experiment: Number of exosomes by nanoparticle tracking assay (NanoSight NS300); settings: 10 ng/mL interferon-γ pretreatment one week
Method: as §1, §3, §4
as §1, with “10” for “20”, “PMA,” for “exendin-4,”
as §3, with “PMA” for “exendin-4”
as §1, with “10 ng/mL interferon-γ,” for “20 nM of exendin-4,”
as §3, with “interferon-γ” for “exendin-4”
as §1, with “10 μM” for “20 nM”, “tetrandrine,” for “exendin-4,”
as §3, with “tetrandrine” for “exendin-4”, “serum. […]” for “serum.”

[4] = test system: primary umbilical cord-derived mesenchymal stem cells; experiment: Content of exosomal protein (Bradford analysis, 595 nm); settings: 10 ng/mL interferon-γ pretreatment one week
Method: as §1, §3, §4
as §1, with “10” for “20”, “PMA,” for “exendin-4,”
as §3, with “PMA” for “exendin-4”
as §1, with “10 ng/mL interferon-γ,” for “20 nM of exendin-4,”
as §3, with “interferon-γ” for “exendin-4”
as §1, with “10 μM” for “20 nM”, “tetrandrine,” for “exendin-4,”
as §3, with “tetrandrine” for “exendin-4”, “serum. […]” for “serum.”

## interferon-γ [IFNγ MSC-Exo = exosomes of IFNγ-treated mesenchymal stem cells]
[1]
  increase in proliferation relative to non-treated mesenchymal stem cells: about 242%
  proliferation ratio relative to non-treated mesenchymal stem cells (1): 2.42
[2]
  fold greater exosomal RNA than non-treated mesenchymal stem cells: about 5.0 fold
[2]; then 72 h exosome-free FBS medium, non-treated 31.0
  Exosomal RNA, yield per 10^6 cells: 155.0 ng
[3]
  fold more exosomes than non-treated mesenchymal stem cells: about 6.7 fold
[3]; then 72 h exosome-free FBS medium, non-treated 2.3
  No. of exosome particles, yield per 10^6 cells: 15.4 10^9
[4]
  fold greater exosomal proteins than non-treated mesenchymal stem cells: about 6.2 fold
[4]; then 72 h exosome-free FBS medium, non-treated 2.0
  Exosomal protein, yield per 10^6 cells: 12.4 ug

Reference: patent US20220195384A1, “COMPOSITION FOR PROMOTING PRODUCTION OF STEM CELL-DERIVED EXOSOMES AND INCREASING STEMNESS” (BREXOGEN INC., priority 2019, published 2022)
